Measured values as given in paper PMC10201364 (MicrobiologyOpen, 2023).

Columns and labels:
[1] = test system: 274‐bp DNA fragment harboring the entire barR‐aminotransferase intergenic region (WT promoter); assay: EMSA of Ah‐BarR with WT promoter fragment; parameters: species or system Acidianus hospitalis; conditions: 5 mM β‐alanine added to binding reactions
Protocol: Electrophoretic mobility shift assays (EMSAs) were performed as described (Charlier & Bervoets, [2022]). Either the forward or the reverse primer was radioactively labeled, using fresh γ‐^32P‐ATP (Perkin Elmer) and T4 polynucleotide kinase (Thermo Scientific). Labeled promoter fragments were obtained by PCR using Taq DNA polymerase (Promega), a ^32P‐labeled primer, a non‐labeled second primer, and a plasmid template (Table A4). Labeled fragments were purified by acrylamide gel electrophoresis. EMSA reactions were prepared in protein‐DNA binding buffer (20 mM Tris‐HCl pH 8.0, 50 mM NaCl, 0.4 mM EDTA, 0.1 mM DTT, 1 mM MgCl2, 12.5% glycerol) with each reaction containing 1 µL (20 cps/µL) of ^32P‐labeled promoter fragment, an excess (25 µg/mL) of non‐labeled, nonspecific competitor DNA (sonicated salmon sperm DNA, Invitrogen), and purified Ah‐BarR protein. Amino acids were added to the reactions in the mentioned concentrations. […] Scans of the gels were analyzed by densitometry using ImageJ (Schneider et al., [2012]), after which GraphPad PRISM (version 9.3.1 for Windows, GraphPad Software, www.graphpad.com) was used to perform Hill curve fitting using nonlinear regression for saturated binding (one site, specific binding), and to determine apparent equilibrium dissociation constants K D.

[2] = target: Ah‐BarR trunc (P ah‐barR promoter, mKate2 reporter) (Acidianus hospitalis, UniProt F4B5V3)
Chain of Ah‐BarR trunc (P ah‐barR promoter, mKate2 reporter) (F4B5V3 entry or part of it): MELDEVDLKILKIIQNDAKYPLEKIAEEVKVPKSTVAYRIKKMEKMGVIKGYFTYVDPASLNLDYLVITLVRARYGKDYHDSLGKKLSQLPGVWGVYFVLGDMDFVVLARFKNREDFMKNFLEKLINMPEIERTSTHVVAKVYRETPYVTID
Protocol: Reporter gene assays were performed as previously described (Bernauw et al., [2022]). pPRC6 and pITC variants (Table 1) were co‐transformed in E. coli MG1655 chemical competent cells using heat shock transformation. Transformant colonies of the Ah‐BarR biosensor strains were picked to inoculate wells of a transparent 96‐well plate (Greiner Bio‐One), each well filled with 200 µL of MOPS EZ Rich Defined medium (Teknova), prepared without the addition of the 5X EZ Supplement, after which the plate was incubated overnight in a ThermoMixer C (Eppendorf) at 30°C and 300 rpm. Next, a black 96‐well plate was filled with a naringenin solution prepared in ethanol (250 mg/L or 2.5 g/L), after which a Breathe‐Easy sealing membrane (Sigma‐Aldrich) was applied and the ethanol was evaporated in a ThermoMixer C (Eppendorf) at 75°C. […] Finally, the plate was sealed again using a Breathe‐Easy sealing membrane (Sigma‐Aldrich).
Plates were incubated at 30°C and 300 rpm for 40 h in a Synergy H1 microplate reader (BioTek) with measurements of OD600 and fluorescence (excitation wavelength: 588 nm, emission wavelength: 633 nm) being taken every 20 min. The gain was set to 140 for all measurements, except for the measurements with the amino acids (pools and separately), where the gain was set to 150. […] In addition, wells solely containing medium were measured as well to correct for the background signal.
Reporter expression was analyzed at t = 30 h, when all cultures had reached the stationary phase, by taking into account three subsequent time points (t–1, t, t+1). The corrected FL/OD600 value was calculated for each replicate (n = 4) as follows: FL/ODcor=FLt−1−FLmed,t−1/ODt−1−ODmed,t−1+FLt−FLmed,t/ODt−ODmed,t+FLt+1−FLmed,t+1/ODt+1−ODmed,t+1/3
Response curves were fitted to a Hill function of the shape P(M)=b+aM^n/θ^n+M^nforaβ−alanine−inducible responseb+aθ^n/θ^n+M^nforaβ−alanine−repressible response according to a previously published procedure (Landry et al., [2018]) with minor adaptations. […] Briefly, lmfit 1.1.0 was used to fit all replicates of a response curve to the appropriate Hill function using the Levenberg‐Marquardt algorithm (Moré, [1978]; Newville et al., [2016]). […] The dynamic range was estimated as μ=a/b .

## NCCC(=O)O [β‐alanine]
[1]
  effect of β‐alanine on formation of Ah‐BarR‐DNA complexes: did not significantly alter
[2]
  Basal fluorescence output b: 2485 RFU
  Dynamic range µ: 3.56
  Hill coefficient n: 1.60
  Maximum fluorescence increase a: 8840 RFU
[2]; read-out: Threshold θ, BS1 trunc, 20 mg/L naringenin
  EC50: 260 µM
